Laboratory results from paper PMC7922564, “Molecular Insights into an Antibiotic Enhancer Action of New Morpholine-Containing 5-Arylideneimidazolones in the Fight against MDR Bacteria” (International Journal of Molecular Sciences, 2021).
Read-outs that look alike come from different tables or passages of the source.

Key:
S. aureus ATCC 25923 = assay: MIC determination (microdilution), S. aureus ATCC 25923; assay type: cell-based, Staphylococcus aureus; settings: Staphylococcus aureus
Procedure: (§1) Determination of MIC values, i.e., intrinsic antibacterial activity, of products and antibiotics (oxacillin, ampicillin, vancomycin, ciprofloxacin, and erythromycin) in the presence and absence of compounds tested was conducted by the use of a standard 2-fold microdilution method in cation-adjusted Mueller Hinton broth following the Clinical and Laboratory Standards Institute (CLSI) guidelines. The MIC values were detected using an Infinite M200 pro Tecan microplate reader (Tecan® France, SA-Lyon, France). MIC determinations were conducted in 96-well microtiter plates and repeated 3–4 times.
(§2) Initially, MICs of a series of imidazolone derivatives were assessed against susceptible (reference) and MDR strains of staphylococci. Next, MIC values of the aforementioned antibiotics were determined in the absence and presence of imidazolone derivatives to assess the chemosensitizing effect of these compounds. […] 5-arylideneimidazolones and 5-arylidenethiazolones, which precipitated after addition to bacterial suspension in MH II medium, were tested at the highest concentrations at which precipitation was not observed. […] Antibacterial activity of compounds and antibiotics ampicillin, vancomycin, ciprofloxacin, and erythromycin was recorded as the lowest concentration of molecules able to inhibit bacterial growth after 18 h incubation at 37 °C. The incubation of bacterial strains exposed to oxacillin paired with compounds tested was conducted at 35 °C and extended to 24 h due to frequent occurrence of heterogeneity among MRSA strains. The results are presented as activity gain (A) parameter which was calculated as ratio of MIC of a certain antibiotic (MICAnt) to its MICAnt+Comp, observed in combination with a tested compound (7, 12–16, 19, or 20; Equation (1)). (1) A=(MICAnt/MICAnt+Comp)

MRSA 19449 = assay: MIC determination (microdilution), MRSA 19449; assay type: cell-based, Staphylococcus aureus; settings: Staphylococcus aureus, MRSA, no precipitation
Procedure: as §1, §2

S. aureus MM-N072 = assay: MIC of compounds, S. aureus MM-N072; assay type: cell-based; settings: Staphylococcus aureus; MM-N072 (MSSA)
Procedure: (§3) Compounds 14–16 were tested further for their adjuvant-like effect with a set of ten additional S. aureus isolates. Firstly, MIC values of the molecules were evaluated in two clinical MSSA isolates (MM-O058, MM-N072), seven MRSA (USA300 LAC, 5328, LG-N017, MM-O021, R45-CC45, R46-CC22, COL) and one VISA strain (Mu50). Detailed results are presented in the Supplementary section (Table S3).
as §1
as §2, with “The incubation of bacterial strains exposed to oxacillin paired with compounds tested was conducted at 35 °C and extended to 24 h due to frequent occurrence of heterogeneity among MRSA strains.” left out, “(1) A=(MICAnt/MICAnt+Comp)” left out

S. aureus 5328 = assay: MIC of compounds, S. aureus 5328; assay type: cell-based; settings: Staphylococcus aureus; 5328 (MRSA)
Procedure: as §3, §1
as §2, with “The incubation of bacterial strains exposed to oxacillin paired with compounds tested was conducted at 35 °C and extended to 24 h due to frequent occurrence of heterogeneity among MRSA strains.” left out, “(1) A=(MICAnt/MICAnt+Comp)” left out

S. aureus R46-CC22 [1] = assay: MIC of compounds, S. aureus R46-CC22; assay type: cell-based; settings: Staphylococcus aureus; R46-CC22 (MRSA)
Procedure: as §3, §1
as §2, with “The incubation of bacterial strains exposed to oxacillin paired with compounds tested was conducted at 35 °C and extended to 24 h due to frequent occurrence of heterogeneity among MRSA strains.” left out, “(1) A=(MICAnt/MICAnt+Comp)” left out

S. aureus R45-CC45 = assay: MIC of compounds, S. aureus R45-CC45; assay type: cell-based; settings: Staphylococcus aureus, read-out: MIC value of compounds
Procedure: as §3, §1
as §2, with “The incubation of bacterial strains exposed to oxacillin paired with compounds tested was conducted at 35 °C and extended to 24 h due to frequent occurrence of heterogeneity among MRSA strains.” left out, “(1) A=(MICAnt/MICAnt+Comp)” left out

S. aureus COL = assay: MIC of compounds, S. aureus COL; assay type: cell-based; settings: Staphylococcus aureus; COL (MRSA)
Procedure: as §3, §1
as §2, with “The incubation of bacterial strains exposed to oxacillin paired with compounds tested was conducted at 35 °C and extended to 24 h due to frequent occurrence of heterogeneity among MRSA strains.” left out, “(1) A=(MICAnt/MICAnt+Comp)” left out

S. aureus MM-O058 = assay: MIC reduction assay (antibiotic adjuvant), S. aureus MM-O058; assay type: cell-based, Staphylococcus aureus
Description: (§4) The adjuvant properties of compounds 14–16 in S. aureus clinical isolates were next tested in combination with oxacillin and the penicillinase-susceptible β-lactam antibiotic, ampicillin. The second β-lactam antibiotic was chosen based on its vulnerability to enzymatic hydrolysis, another important resistance mechanism in S. aureus against penicillin. Therefore, the results of the MIC reduction assay obtained on the activity of arylideneimidazolones combined with oxacillin and ampicillin, respectively, might provide further insights into the possible mechanism of action of the compounds. Complete results are presented in Supplementary (Tables S4 and S5), while condensed in Figure 6, in the case of desired activity noted. […] One possible explanation for the lack of adjuvant activity of compounds in some of the strains selected for this study might be that these strains express PBP2a only when induced by the antibiotic, while others, for which potentiating activity of compounds was observed, produce this protein in high levels straight away.
as §1, §2

S. aureus MM-O021 = assay: MIC reduction assay (antibiotic adjuvant), S. aureus MM-O021; assay type: cell-based, Staphylococcus aureus
Description: as §4, §1, §2

S. aureus R46-CC22 [2] = assay: MIC reduction assay (antibiotic adjuvant), S. aureus R46-CC22; assay type: cell-based, Staphylococcus aureus
Description: as §4, §1, §2

S. aureus Mu50 = assay: MIC reduction assay (antibiotic adjuvant), S. aureus Mu50; assay type: cell-based, Staphylococcus aureus; design: key: A = MIC of antibiotic alone / MIC with compound;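 further: compound at no more than one quarter of its own MIC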
Description: as §4, §1, §2

[3] = test system: K. aerogenes Ea-294, Ea-308 (devoid of AcrAB); assay: MIC of compounds, K. aerogenes Ea-294, Ea-308; assay type: cell-based; settings: Klebsiella aerogenes, read-out: Minimal Inhibitory Concentration (MIC)
Description: (§5) A subset of compounds, namely 7, 12–16, 19, 20, was also examined for the potential to increase the effectiveness of the antibiotics chloramphenicol, erythromycin, doxycycline, and the fluoroquinolone antibiotic norfloxacin, which all are substrates for AcrAB-TolC in K. aerogenes. In addition to strain Ea-289, the adjuvant-like effect of the compounds was investigated in strain CM-64, which also overexpresses the AcrAB-TolC efflux pump, although it has no changes in porin content, and in the Ea-289 derivatives, i.e., Ea-294 and Ea-308, which are devoid of AcrAB (Table S17, Supplementary).
as §1
(§6) MIC values of 5-arylideneimidazolone derivatives were determined following CLSI recommendations as in the methods described for S. aureus (Section 3.3.1).

[4] = test system: K. aerogenes Ea-289 (overexpression of AcrAB-TolC); assay: MIC of compounds, K. aerogenes Ea-289; assay type: cell-based; settings: Klebsiella aerogenes
Procedure: At first, MIC values of compounds were determined (Table S15, Supplementary). Next, their abilities to reduce MICs of the AcrAB-TolC substrates doxycycline (a tetracycline-class antibiotic) and erythromycin were studied (Table S16, Supplementary). […]
as §1, §6

K. aerogenes Ea-289 = assay: MIC reduction assay (antibiotic adjuvant), K. aerogenes Ea-289; assay type: cell-based, Klebsiella aerogenes;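 further: compound at no more than one quarter of its own MIC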
Procedure: At first, MIC values of compounds were determined (Table S15, Supplementary). Next, their abilities to reduce MICs of the AcrAB-TolC substrates doxycycline (a tetracycline-class antibiotic) and erythromycin were studied (Table S16, Supplementary).
as §5, §2, §6

[5] = test system: K. aerogenes Ea-294, Ea-308 (devoid of AcrAB); assay: MIC of compounds, K. aerogenes Ea-294, Ea-308; assay type: cell-based, Klebsiella aerogenes; settings: ratio of compound MICs
[6] = ATCC25923, unstarred values of column MIC value/no precipitation, read-out: MIC value
[7] = ampicillin, range over repetitions
[8] = read-out: MIC value/no precipitation
[9] = read-out: Minimal Inhibitory Concentration (MIC)
[10] = doxycycline, chloramphenicol, norfloxacin, erythromycin

Structure (SMILES)	MIC (S. aureus ATCC 25923; [6]) [µM]	MIC (MRSA 19449) [µM]	MIC (S. aureus MM-N072) [µM]	MIC (S. aureus 5328) [µM]	MIC (S. aureus R46-CC22 [1]) [µM]	MIC (S. aureus COL) [µM]	A (activity gain) (S. aureus MM-O058; ampicillin)	A (activity gain) (S. aureus MM-O058; erythromycin)	A (activity gain) (S. aureus MM-O021; [7])	A (activity gain) (S. aureus MM-O021; erythromycin)	A (activity gain) (S. aureus R46-CC22 [2]; ampicillin)	A (activity gain) (S. aureus R46-CC22 [2]; ciprofloxacin)	A (activity gain) (S. aureus Mu50; ampicillin)	A (activity gain) (S. aureus Mu50; ciprofloxacin)	A (activity gain) (S. aureus Mu50; erythromycin)	A (activity gain) (S. aureus Mu50; vancomycin)	MIC [3] [µM]	MIC [4, 8] [µM]	MIC [4, 9] [µM]	A (activity gain) (K. aerogenes Ea-289; doxycycline)	other results
NC1=N/C(=C\c2ccc(-c3ccccc3)cc2)C(=O)N1CCN1CCOCC1 [Compound 14]	31.2 to 250	31.2 to 250	≥ 500	≥ 500	≥ 500	≥ 500	1	1	1	1	2	1	1	1	1	1	2000	> 250	> 2000	1	MIC (S. aureus R45-CC45; R45-CC45 (MRSA)): ≥ 500 µM; A (activity gain) (K. aerogenes Ea-289; [10]): 1; A (activity gain) (K. aerogenes Ea-289; erythromycin): 1
NC1=N/C(=C\c2ccc(-c3ccccc3)cc2)C(=O)N1CCCN1CCOCC1 [Compound 15]	31.2 to 250	31.2 to 250	250	250	250	250	1	1	8-16	1	2	1	2	1	1	1	125	> 250	> 2000	1	MIC (S. aureus ATCC 25923; ATCC25923, read-out: MIC value): 125 µM; MIC (S. aureus R45-CC45; MRSA): 125 to 250 µM; A (AMP), gain of activity, arithmetic mean (S. aureus MM-O021; ampicillin, arithmetic mean of 3-4 repetitions): 10.7; A (activity gain) (K. aerogenes Ea-289; [10]): 1; A (activity gain) (K. aerogenes Ea-289; erythromycin): 1; more effective in strains Ea-294 and Ea-298 when compared to the parental strain Ea-289 [5]: ≥ 4 fold
NC1=N/C(=C\c2cccc(Oc3ccccc3)c2)C(=O)N1CCCN1CCOCC1 [Compound 16]	31.2 to 250		250	250	250 to 500	250	1	1	1	1	1	1	2	1	1	1	500		> 2000		MIC (S. aureus R45-CC45; R45-CC45 (MRSA)): 250 µM; more effective in strains Ea-294 and Ea-298 when compared to the parental strain Ea-289 [5]: ≥ 4 fold
NC1=N/C(=C\c2ccc3c(c2)Cc2ccccc2-3)C(=O)N1CCCN1CCOCC1 [Compound 19]	31.2 to 250	31.2 to 250															250	> 250	> 2000	1	A (activity gain) (K. aerogenes Ea-289; [10]): 1; A (activity gain) (K. aerogenes Ea-289; erythromycin): 1; more effective in strains Ea-294 and Ea-298 when compared to the parental strain Ea-289 [5]: ≥ 4 fold
